Our source for the Emax and EC50 values is patent US20240368214A1, “POSITIVE NMDA-MODULATING COMPOUNDS AND METHODS OF USE THEREOF” (SAGE THERAPEUTICS, INC., priority 2021, published 2024).

Read-outs that look alike come from different tables or passages of the source.

This assay concerns the target T1, recombinant human GluN1/GluN2A receptor (Homo sapiens, UniProt Q05586+Q12879).
T1 construct: expressed in transfected cells; host or cells: HEK293, tetracycline-inducible expression
The experiment in a line: Whole-cell patch clamp of mammalian cells (Syncropatch 384i), NMDA modulation. To be noted: HEK293 cells, human GluN1/GluN2A, glutamate 1 μM / glycine 100 μM, -80 mV, peak amplitude increase; for EC50: read-out: EC50. Type of assay: cell-based. An outline of the steps:
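Modulation read as fold rise in peak current, (Icomp/Icontrol)−1, from 8 concentrations with ≥2 wells each, four-parameter fit. Compound pre-incubated 120 s then co-applied with 1 μM glutamate plus 100 μM glycine; tetracycline-inducible HEK293 GluN1/GluN2A cells clamped at −80 mV.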
(In general: Patch clamp records ionic current or voltage across a cell membrane.)

T1 sequence (Q12879 23-1464, other chains not shown): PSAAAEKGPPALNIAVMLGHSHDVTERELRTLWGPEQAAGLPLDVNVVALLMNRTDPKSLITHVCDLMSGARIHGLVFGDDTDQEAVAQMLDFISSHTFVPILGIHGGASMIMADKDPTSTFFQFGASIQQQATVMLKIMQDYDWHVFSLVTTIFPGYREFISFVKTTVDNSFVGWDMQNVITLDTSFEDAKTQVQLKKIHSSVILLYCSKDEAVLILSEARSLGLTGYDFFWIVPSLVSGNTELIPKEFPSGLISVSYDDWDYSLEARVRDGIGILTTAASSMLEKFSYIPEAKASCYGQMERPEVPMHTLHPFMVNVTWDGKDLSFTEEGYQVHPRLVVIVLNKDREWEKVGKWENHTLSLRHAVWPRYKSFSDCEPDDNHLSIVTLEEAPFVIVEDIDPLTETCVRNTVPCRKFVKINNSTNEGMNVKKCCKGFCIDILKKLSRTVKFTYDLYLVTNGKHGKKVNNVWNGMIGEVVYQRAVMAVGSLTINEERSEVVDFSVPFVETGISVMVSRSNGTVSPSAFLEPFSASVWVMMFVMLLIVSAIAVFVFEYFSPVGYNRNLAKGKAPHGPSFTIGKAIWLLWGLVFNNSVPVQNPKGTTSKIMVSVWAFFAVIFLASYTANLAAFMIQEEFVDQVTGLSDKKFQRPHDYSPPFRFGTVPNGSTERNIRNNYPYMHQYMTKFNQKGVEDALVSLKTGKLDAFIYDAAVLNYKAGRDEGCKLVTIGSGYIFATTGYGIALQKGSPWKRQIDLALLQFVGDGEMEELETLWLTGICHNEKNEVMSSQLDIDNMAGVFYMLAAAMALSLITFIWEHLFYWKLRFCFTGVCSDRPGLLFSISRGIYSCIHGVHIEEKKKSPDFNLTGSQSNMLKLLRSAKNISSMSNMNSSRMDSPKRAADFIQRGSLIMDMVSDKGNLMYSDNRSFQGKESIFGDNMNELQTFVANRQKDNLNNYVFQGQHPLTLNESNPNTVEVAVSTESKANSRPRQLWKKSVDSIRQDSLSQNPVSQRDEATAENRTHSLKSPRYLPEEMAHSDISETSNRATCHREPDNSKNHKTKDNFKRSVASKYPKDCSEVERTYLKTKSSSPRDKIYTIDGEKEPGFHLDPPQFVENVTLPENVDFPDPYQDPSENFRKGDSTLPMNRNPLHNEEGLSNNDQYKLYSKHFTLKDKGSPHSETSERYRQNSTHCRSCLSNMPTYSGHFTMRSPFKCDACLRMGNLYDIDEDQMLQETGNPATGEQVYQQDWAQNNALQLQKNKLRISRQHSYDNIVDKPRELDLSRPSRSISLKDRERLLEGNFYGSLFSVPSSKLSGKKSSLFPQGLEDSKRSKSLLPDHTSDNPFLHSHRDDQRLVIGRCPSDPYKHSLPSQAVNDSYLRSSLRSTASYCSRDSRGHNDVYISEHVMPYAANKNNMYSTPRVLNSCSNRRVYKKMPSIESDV

Consider `C[C@H](CC[C@](C)(O)C(F)(F)F)[C@H]1CC[C@H]2[C@@H]3CC=C4C[C@@](C)(O)CCC[C@]4(C)[C@H]3CC[C@]12C` [Compound D-15, (1R,3aS,3bS,7S,10aR,10bS,12aR)-7,10a,12a-trimethyl-1-((2R,5S)-6,6,6-trifluoro-5-hydroxy-5-methylhexan-2-yl)-1,2,3,3a,3b,4,6,7,8,9,10,10a,10b,11,12,12a-hexadecahydrocyclohepta[a]cyclopenta[f]naphthalen-7-ol], for which, for the setting “Table D-2”, the Emax (in general, the size of the effect at its maximum, as opposed to the concentration needed) was under 100% and the concentration for a half-maximal effect (EC50) (commonly the concentration needed to bring the measured effect to its halfway point) was 100 to 500 nM.
Regarding `CC[C@@]1(O)CCC[C@@]2(C)C(=CC[C@H]3[C@@H]4CC[C@H]([C@H](C)CC[C@](C)(O)C(F)(F)F)[C@@]4(C)CC[C@@H]32)C1` [Compound D-16, (1R,3aS,3bS,7R,10aR,10bS,12aR)-7-ethyl-10a,12a-dimethyl-1-((2R,5S)-6,6,6-trifluoro-5-hydroxy-5-methylhexan-2-yl)-1,2,3,3a,3b,4,6,7,8,9,10,10a,10b,11,12,12a-hexadecahydrocyclohepta[a]cyclopenta[f]naphthalen-7-ol], under “Table D-2”, the maximal response (Emax) is under 100% and the EC50 was over 1000 nM.
Regarding `CC[C@]1(O)CCC[C@@]2(C)C(=CC[C@H]3[C@@H]4CC[C@H]([C@H](C)CC[C@](C)(O)C(F)(F)F)[C@@]4(C)CC[C@@H]32)C1` [Compound D-17, (1R,3aS,3bS,7S,10aR,10bS,12aR)-7-ethyl-10a,12a-dimethyl-1-((2R,5S)-6,6,6-trifluoro-5-hydroxy-5-methylhexan-2-yl)-1,2,3,3a,3b,4,6,7,8,9,10,10a,10b,11,12,12a-hexadecahydrocyclohepta[a]cyclopenta[f]naphthalen-7-ol], under “Table D-2”, the maximum response (Emax) was 100 to 200% and the concentration for a half-maximal effect (EC50) lay within 100 to 500 nM.
As for `CC[C@]1(O)CC[C@]2(C)C3=CC[C@]4(C)[C@@H]([C@H](C)CCCC(C)(C)O)CC[C@H]4[C@@H]3CC[C@H]2C1` [Compound E-1, (3S,5S,8S,10S,13R,14S,17R)-3-ethyl-17-((R)-6-hydroxy-6-methylheptan-2-yl)-10,13-dimethyl-2,3,4,5,6,7,8,10,12,13,14,15,16,17-tetradecahydro-1H-cyclopenta[a]phenanthren-3-ol], where the note is “Table E-2”, the maximal effect (Emax) was under 100% and the 50% effective concentration (EC50) lay in the range of 1 to 100 nM.
As for `CC[C@]1(O)CC[C@]2(C)C3=CC[C@]4(C)[C@@H]([C@H](C)CC[C@@](C)(O)C(F)(F)F)CC[C@H]4[C@@H]3CC[C@H]2C1` [Compound E-2, (3S,5S,8S,10S,13R,14S,17R)-3-ethyl-10,13-dimethyl-17-((2R,5R)-6,6,6-trifluoro-5-hydroxy-5-methylhexan-2-yl)-2,3,4,5,6,7,8,10,12,13,14,15,16,17-tetradecahydro-1H-cyclopenta[a]phenanthren-3-ol], for the setting “Table E-2”, the Emax was over 200% and the half-maximal effective concentration (EC50) was in the range of 100 to 500 nM.
On to `CC[C@]1(O)CC[C@]2(C)C3=CC[C@]4(C)[C@@H]([C@H](C)CC[C@](C)(O)C(F)(F)F)CC[C@H]4[C@@H]3CC[C@H]2C1` [Compound E-3, (3S,5S,8S,10S,13R,14S,17R)-3-ethyl-10,13-dimethyl-17-((2R,5S)-6,6,6-trifluoro-5-hydroxy-5-methylhexan-2-yl)-2,3,4,5,6,7,8,10,12,13,14,15,16,17-tetradecahydro-1H-cyclopenta[a]phenanthren-3-ol], for which, for the setting “Table E-2”, the Emax is over 200% and the half-maximal effective concentration (EC50) is 1 to 100 nM.
On to `CC[C@]1(O)CC[C@]2(C)C3=CC[C@]4(C)[C@@H]([C@H](C)CC[C@@H](O)C(C)C)CC[C@H]4[C@@H]3CC[C@H]2C1` [Compound E-4, (3S,5S,8S,10S,13R,14S,17R)-3-ethyl-17-((2R,5R)-5-hydroxy-6-methylheptan-2-yl)-10,13-dimethyl-2,3,4,5,6,7,8,10,12,13,14,15,16,17-tetradecahydro-1H-cyclopenta[a]phenanthren-3-ol], for which, where the note is “Table E-2”, the Emax is over 200% and the EC50 lay within 1 to 100 nM.
For `CC[C@]1(O)CC[C@]2(C)C3=CC[C@]4(C)[C@@H]([C@H](C)CCC(C)(C)O)CC[C@H]4[C@@H]3CC[C@H]2C1` [Compound E-5, (3S,5S,8S,10S,13R,14S,17R)-3-ethyl-17-((R)-5-hydroxy-5-methylhexan-2-yl)-10,13-dimethyl-2,3,4,5,6,7,8,10,12,13,14,15,16,17-tetradecahydro-1H-cyclopenta[a]phenanthren-3-ol], where the note is “Table E-2”, the maximum response (Emax) fell in the range of 100 to 200% and the EC50 was 1 to 100 nM.
Regarding `CC[C@]1(O)CC[C@]2(C)C3=CC[C@]4(C)[C@@H]([C@H](C)CCC5(O)CCCC5)CC[C@H]4[C@@H]3CC[C@H]2C1` [Compound E-6, (3S,5S,8S,10S,13R,14S,17R)-3-ethyl-17-((R)-4-(1-hydroxycyclopentyl)butan-2-yl)-10,13-dimethyl-2,3,4,5,6,7,8,10,12,13,14,15,16,17-tetradecahydro-1H-cyclopenta[a]phenanthren-3-ol], where the note is “Table E-2”, the Emax is over 200% and the concentration giving a half-maximal response (EC50) is 1 to 100 nM.
On to `CC[C@]1(O)CC[C@]2(C)C3=CC[C@]4(C)[C@@H]([C@H](C)CCC5(O)CC5)CC[C@H]4[C@@H]3CC[C@H]2C1` [Compound E-7, (3S,5S,8S,10S,13R,14S,17R)-3-ethyl-17-((R)-4-(1-hydroxycyclopropyl)butan-2-yl)-10,13-dimethyl-2,3,4,5,6,7,8,10,12,13,14,15,16,17-tetradecahydro-1H-cyclopenta[a]phenanthren-3-ol], for which, for the setting “Table E-2”, the Emax is over 200% and the 50% effective concentration (EC50) was 100 to 500 nM.
In the case of `CC[C@]1(O)CC[C@]2(C)C3=CC[C@]4(C)[C@@H]([C@H](C)CC[C@@]5(O)CCOC5)CC[C@H]4[C@@H]3CC[C@H]2C1` [Compound E-8, (R)-3-((R)-3-((3S,5S,8S,10S,13R,14S,17R)-3-ethyl-3-hydroxy-10,13-dimethyl-2,3,4,5,6,7,8,10,12,13,14,15,16,17-tetradecahydro-1H-cyclopenta[a]phenanthren-17-yl)butyl)tetrahydrofuran-3-ol], where the note is “Table E-2”, the maximal response (Emax) was over 200% and the EC50 is 1 to 100 nM.
In the case of `CC[C@]1(O)CC[C@]2(C)C3=CC[C@]4(C)[C@@H]([C@H](C)CC[C@]5(O)CCOC5)CC[C@H]4[C@@H]3CC[C@H]2C1` [Compound E-9, (S)-3-((R)-3-((3S,5S,8S,10S,13R,14S,17R)-3-ethyl-3-hydroxy-10,13-dimethyl-2,3,4,5,6,7,8,10,12,13,14,15,16,17-tetradecahydro-1H-cyclopenta[a]phenanthren-17-yl)butyl)tetrahydrofuran-3-ol], under “Table E-2”, the Emax was over 200% and the concentration for a half-maximal effect (EC50) is 1 to 100 nM.
In the same order, the values of `C[C@H](CCCO)[C@H]1CC[C@H]2[C@@H]3CC[C@H]4C[C@@](C)(O)CC[C@]4(C)C3=CC[C@]12C` [Compound E-10, (3S,5S,8S,10S,13R,14S,17R)-17-((R)-5-hydroxypentan-2-yl)-3,10,13-trimethyl-2,3,4,5,6,7,8,10,12,13,14,15,16,17-tetradecahydro-1H-cyclopenta[a]phenanthren-3-ol] are under 100% and 1 to 100 nM.
